Measured values published in patent publication US20060039986A1, “Functional material, process for producing functional material and functional member and environment modifying apparatus using the functional material” (Kabushiki Kaisha Erubu, priority 2004, published 2006).

Assay: Stability of ascorbic acid in water of adjusted pH (DPPH and HPLC)
Format: physicochemical
Conditions: 5 ppm in 25° C. water
Description: The free ascorbic-acid concentrations were measured immediately after they were prepared so that ascorbic acid was contained in an amount of 5 ppm in 25° C. water whose pH was adjusted to 1, 3, 4, 5, 7, 9 and 11, respectively, and after 24 hours. The free ascorbic acid concentrations were measured by the above-described DPPH radical elimination method and an HPLC method. The HPLC method uses an ODS as the column, and uses an ultraviolet spectrophotometer (wavelength 254 nm) as the detecting device to carry out the measurement. The results are illustrated in FIG. 12.

SMILES: O=C1O[C@H]([C@@H](O)CO)C(O)=C1O [ascorbic acid]
- pH at which ascorbic acid could be stabilized more (24 hours): ≤ 3
- pH boundary at or below which the stability of ascorbic acid improved (24 hours): ~5
- stability of ascorbic acid versus pH (in words) (pH 1, 3, 4, 5, 7, 9, 11, immediately and after 24 hours (FIG. 12)): the lower the pH was the more the stability of ascorbic acid improved
